# From publication PMC10562414, “GLP-1R signaling neighborhoods associate with the susceptibility to adverse drug reactions of incretin mimetics” (Nature Communications, 2023)
# What was measured:
# GLP-1R = GLP-1R (Homo sapiens, UniProt P43220); assay: ebBRET pathway activation (effector membrane translocation, 15 pathways) at the plasma membrane (rGFP-CAAX); assay type: cell-based; parameters: Potency (logEC50): scale not given here; conditions: for Efficacy (normalized) / Emax / Potency (logEC50): Plasma membrane; for Efficacy (normalized): Fig. 2c; for Potency (logEC50): Fig. 2d
# [1] = system: GLP-1R-expressing HEK293 cells + Dyngo-4A (phosphoproteome); assay: Phosphoproteomics, GLP-1R-transfected cells with internalization inhibitor Dyngo-4A, 30 min; assay type: cell-based, human; conditions: 1 μM, 30 min, vs vehicle, n = 3
# Method: P values were calculated by a two-sided unpaired t-test.
# HEK293 cells (350,000 cells/mL) were transfected in suspension using 3 μg of linear PEI (MW 25,000) per 1 μg of plasmid DNA and seeded onto poly-D-lysine-coated 60 mm dishes at a density of 1,750,000 cells per dish. After a 24-h incubation, cells were washed twice with PBS and placed in starvation media (DMEM with penicillin/streptomycin). After a 48-h incubation, cells were washed twice with HBSS and maintained in the same buffer. […] Cell extracts were prepared as previously described[64]–[66]. In short, 200 μL of the lysis buffer preheated at 95 °C (4% sodium dodecyl sulfate in 50 mM Tris adjusted to pH 8.5) was added to the cells. The samples were then denatured at 95 °C for 10 min, placed on ice and then sonicated using a probe sonicator (3 sec on, 3 sec off pulse, 1 min, 30% amplitude) (Branson). Lysate protein concentration was determined using the Pierce bicinchoninic acid assay kit (Thermo Fisher Scientific) according to the manufacturer’s instructions. The lysates were reduced using 5 mM dithiothreitol for 1 h at room temperature and alkylated using 15 mM iodoacetamide for 1 h at room temperature in the dark. Proteins were precipitated and digested on beads using MagReSyn Amine magnetic beads (ReSyn Biosciences) according to the manufacturer’s instructions. Protein digestion was conducted overnight at 37 °C with lysyl endopeptidase (LysC, Wako) (1:150 LysC/protein, w/w) and trypsin (1:300 trypsin/protein, w/w). 20% TFA, 2 M glycolic acid in 80% ACN were added to the samples at a 1:1 ratio for phosphopeptide enrichment using MagReSyn TiO2 magnetic beads (ReSyn Biosciences) according to the manufacturer’s instructions. The enriched phosphopeptides were dried overnight in a SpeedVac, resuspended into 5% formic acid (FA), desalted using StageTip (Thermo Fisher Scientific) according to the manufacturer’s instructions and dried in a SpeedVac. The experiment was performed in biological triplicates.
# All parameters and settings regarding the acquisition of the proteomics data can be found in Supplementary Data 11, 12. For data acquisition, the instrument was set to peptide mode, with a trapping pressure set as low (2mTorr). An EASY-Spray Source (Thermo Fisher Scientific) was used and the column temperature was maintained with the integrated, temperature-controlled heater at 55 °C throughout the experiment. For the data presented in Fig. 5d, the column was heated at 50 °C following the manufacturer’s instructions (IonOpticks).
# Acquired raw files were converted to mzML format by MSConvert (version 3.0.21258)[67] applying peak picking of the mass spectra with the vendor-provided algorithm (Thermo Fisher Scientific). The mzML files were analyzed using the FragPipe GUI v18 for both library and DIA search. […] Trypsin with up to 2 missed cleavages was set as digestion enzyme, oxidation of methionine, acetylation of the N-terminus and phosphorylation on serine, threonine and tyrosine (maximal occurrence was set to three) were set as variable modifications. Carbamidomethylation of cysteine residues was set as a fixed modification. Peptide length was restricted to 7 to 50 amino acids, and 500 to 5000 Da. The precursor tolerance was set to ±20 ppm, fragment mass tolerance to 20 ppm and MSBooster was enabled. The resulting peptide-spectrum matches were adjusted to a 1% false discovery rate with Percolator[69] as part of the Philosopher toolkit (v4.4)[70] and converted to a spectra library. DIA files were analyzed by DIA-NN 1.8.1[71], [72] using the previously generated library and monitor-command mode. Peptide quantification was performed based on the fragment elution profiles from the MS2 level (area under the curve).
# All further data processing was performed in R (version 4.2.1). Only phosphopeptides with a localization score of at least 0.75 were considered for further analysis. […]
# [2] = target: kinase substrates (Kinase Library); assay: Kinase substrate enrichment analysis of regulated phosphopeptides; parameters: species or system human; conditions: 1 μM
# Method: All further data processing was performed in R (version 4.2.1). Only phosphopeptides with a localization score of at least 0.75 were considered for further analysis. Peptides quantified with different charge states were aggregated and only phosphopeptides with at least 2 quantifications for each time point, treatment and replicate were kept. Intensities were normalized by median centering and log2-scaling. Missing values were imputed by k-NN imputation. All statistical comparisons were performed based on homoscedastic two-tailed Student’s t-tests. For the kinase substrate enrichment analysis, the Kinase Library online analytical tool[73] was used with predetermined foreground and background sets based on previously determined significance thresholds (P < 0.05; log2 fold change >1). All remaining settings were left as default.
# [3] = plasma membrane rGFP-CAAX, HEK293, PDZRhoGEF-RlucII, agonist incubation 0 min, as tabulated for polar area diagram, n=3-6
# [4] = plasma membrane rGFP-CAAX, HEK293, Rap1Gap-RlucII, agonist incubation 0 min, as tabulated for polar area diagram, n=3-6
# [5] = plasma membrane rGFP-CAAX, HEK293, Rap1Gap-RlucII, agonist incubation 0 min, normalized to the highest responding drug, F test P < 0.00625, n=3-6
# [6] = plasma membrane rGFP-CAAX, HEK293, p63RhoGEF-RlucII, agonist incubation 0 min, as tabulated for polar area diagram, n=3-6
# [7] = plasma membrane rGFP-CAAX, HEK293, p63RhoGEF-RlucII, agonist incubation 0 min, normalized to the highest responding drug, F test P < 0.00625, n=3-6
# Sequence of GLP-1R (P43220 24-463): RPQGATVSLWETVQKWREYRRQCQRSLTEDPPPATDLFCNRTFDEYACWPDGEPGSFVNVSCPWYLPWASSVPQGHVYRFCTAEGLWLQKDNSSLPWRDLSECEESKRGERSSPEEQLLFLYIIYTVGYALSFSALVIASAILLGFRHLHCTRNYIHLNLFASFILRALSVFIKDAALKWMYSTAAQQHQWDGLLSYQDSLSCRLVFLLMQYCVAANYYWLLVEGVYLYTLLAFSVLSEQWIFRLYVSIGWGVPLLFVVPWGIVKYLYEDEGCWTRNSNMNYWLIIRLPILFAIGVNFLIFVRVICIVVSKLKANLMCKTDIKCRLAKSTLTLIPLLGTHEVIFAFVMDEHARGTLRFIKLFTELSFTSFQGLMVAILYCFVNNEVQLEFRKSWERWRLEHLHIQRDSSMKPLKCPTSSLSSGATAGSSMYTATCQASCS
structure (smiles),measurement,setting,value
N#Cc1ccc(COc2cccc(C3CCN(Cc4nc5ccc(C(=O)O)cc5n4C[C@@H]4CCO4)CC3)n2)c(F)c1 [Danuglipron],"pathway activation at the plasma membrane, in words","GLP-1R; 15 pathways, HEK293, ebBRET",biased away from βARR towards Gs and Gi/o
same,Efficacy (normalized),GLP-1R; GRK2/Gβγ,0.6954
same,Emax,GLP-1R; GRK/Gβγ,0.5067
same,Emax,GLP-1R; Gα11,0
same,Efficacy (normalized),GLP-1R; Gα11,0
same,Potency (logEC50),GLP-1R; Gα11,0
same,Emax,GLP-1R; Gα12,0
same,Efficacy (normalized),GLP-1R; Gα12,0
same,Potency (logEC50),GLP-1R; Gα12,0
same,Emax,GLP-1R; Gα13,0
same,Efficacy (normalized),GLP-1R; Gα13,0
same,Potency (logEC50),GLP-1R; Gα13,0
same,Emax,GLP-1R; Gα14,0
same,Efficacy (normalized),GLP-1R; Gα14,0
same,Potency (logEC50),GLP-1R; Gα14,0
same,Emax,GLP-1R; Gα15,0
same,Efficacy (normalized),GLP-1R; Gα15,0
same,Potency (logEC50),GLP-1R; Gα15,0
same,Emax,GLP-1R; Gαi1,0.0218
same,Efficacy (normalized),GLP-1R; Gαi1,0.3729
same,Potency (logEC50),GLP-1R; Gαi1,0.3182
same,Emax,GLP-1R; Gαi2,0.2304
same,Efficacy (normalized),GLP-1R; Gαi2,0.9309
same,Potency (logEC50),GLP-1R; Gαi2,0.1266
same,Emax,GLP-1R; Gαi3,0.03983
same,Efficacy (normalized),GLP-1R; Gαi3,0.6445
same,Potency (logEC50),GLP-1R; Gαi3,0.2454
same,Emax,GLP-1R; GαoA,0
same,Efficacy (normalized),GLP-1R; GαoA,0
same,Potency (logEC50),GLP-1R; GαoA,0
same,Emax,GLP-1R; GαoB,0.4329
same,Efficacy (normalized),GLP-1R; GαoB,0.5975
same,Potency (logEC50),GLP-1R; GαoB,0.326
same,Emax,GLP-1R; Gαq,0
same,Efficacy (normalized),GLP-1R; Gαq,0
same,Potency (logEC50),GLP-1R; Gαq,0
same,Emax,GLP-1R; Gαs,1.832
same,Efficacy (normalized),GLP-1R; Gαs,0.7714
same,Potency (logEC50),GLP-1R; Gαs,0.5221
same,Emax,GLP-1R; Gαz,0.2013
same,Efficacy (normalized),GLP-1R; Gαz,0.678
same,Potency (logEC50),GLP-1R; Gαz,0.3391
same,Emax,GLP-1R; βARR,0.3843
same,Efficacy (normalized),GLP-1R; βARR2,0.2947
same,"Efficacy (normalized), GRK2/Gβγ","GLP-1R; plasma membrane rGFP-CAAX, HEK293, GRK2-D110A-RlucII, agonist incubation 0 min, normalized to the highest responding drug, F test P < 0.00625, n=3-6",0.6954
same,"Potency (logEC50), Gα12",GLP-1R; [3],0
same,"Potency (logEC50), Gα13",GLP-1R; [3],0
same,"Efficacy (normalized), Gα13","GLP-1R; plasma membrane rGFP-CAAX, HEK293, PDZRhoGEF-RlucII, agonist incubation 0 min, normalized to the highest responding drug, F test P < 0.00625, n=3-6",0
same,"Potency (logEC50), Gαi1",GLP-1R; [4],0.3182
same,"Potency (logEC50), Gαi2",GLP-1R; [4],0.1266
same,"Potency (logEC50), Gαi3",GLP-1R; [4],0.2454
same,"Potency (logEC50), GαoA",GLP-1R; [4],0
same,"Potency (logEC50), GαoB",GLP-1R; [4],0.326
same,"Potency (logEC50), Gαz",GLP-1R; [4],0.3391
same,"Efficacy (normalized), Gαi1",GLP-1R; [5],0.3729
same,"Efficacy (normalized), Gαi2",GLP-1R; [5],0.9309
same,"Efficacy (normalized), Gαi3",GLP-1R; [5],0.6445
same,"Efficacy (normalized), GαoA",GLP-1R; [5],0
same,"Efficacy (normalized), GαoB",GLP-1R; [5],0.5975
same,"Efficacy (normalized), Gαz",GLP-1R; [5],0.678
same,"Potency (logEC50), Gαs","GLP-1R; plasma membrane rGFP-CAAX, HEK293, Rluc8-mGs, agonist incubation 0 min, as tabulated for polar area diagram, n=3-6",0.5221
same,"Efficacy (normalized), Gαs","GLP-1R; plasma membrane rGFP-CAAX, HEK293, Rluc8-mGs, agonist incubation 0 min, normalized to the highest responding drug, F test P < 0.00625, n=3-6",0.7714
same,"Potency (logEC50), Gα11",GLP-1R; [6],0
same,"Potency (logEC50), Gα14",GLP-1R; [6],0
same,"Potency (logEC50), Gα15",GLP-1R; [6],0
same,"Potency (logEC50), Gαq",GLP-1R; [6],0
same,"Efficacy (normalized), Gα11",GLP-1R; [7],0
same,"Efficacy (normalized), Gα14",GLP-1R; [7],0
same,"Efficacy (normalized), Gα15",GLP-1R; [7],0
same,"Efficacy (normalized), Gαq",GLP-1R; [7],0
same,"Efficacy (normalized), βARR2","GLP-1R; plasma membrane rGFP-CAAX, HEK293, β-arrestin-2-RlucII, agonist incubation 0 min, normalized to the highest responding drug, F test P < 0.00625, n=3-6",0.2947
same,"log2.foldchange, PABPN1 S19","[1]; Dyngo internalization inhibitor (50 μM, 30 min pre), p 0.975742",0.005523
same,"log2.foldchange, EIF3J S13","[1]; Dyngo internalization inhibitor, p 0.0121456 (passed all criteria)",2
same,"log2.foldchange, EIF3J S11;S13","[1]; Dyngo internalization inhibitor, p 0.107013",0.1859
same,"log2.foldchange, VPS51 S18","[1]; Dyngo internalization inhibitor, p 0.460124",-0.1867
same,"log2.foldchange, POLE4 S9;T11","[1]; Dyngo internalization inhibitor, p 0.765877",-0.2937
same,"kinase kinetics, in words",[2],distinctly different kinetics
same,"dominant_enrichment_value_log2, NUAK2","[2]; 15min, log10 abs adjusted p 0.784095",1.911
same,"dominant_enrichment_value_log2, PKACA","[2]; 15min, log10 abs adjusted p 0.96096",2.68
same,"dominant_enrichment_value_log2, PRKD3","[2]; 15min, log10 abs adjusted p 1.61335",3.823
same,"dominant_enrichment_value_log2, PRKD2","[2]; 15min, log10 abs adjusted p 1.89437",2.877
same,"dominant_enrichment_value_log2, SIK","[2]; 15min, log10 abs adjusted p 3.68823",3.799
